Assay results: paper PMC11944389, “Electrochemical Analysis and Inhibition Assay of Immune-Modulating Enzyme, Indoleamine 2,3-Dioxygenase” (Pharmaceuticals, 2025)

Target: T1, human indoleamine 2,3-dioxygenase 1 (hIDO1) (Homo sapiens, UniProt P14902)
T1 construct: gene IDO1; full-length hIDO1
Test: electrochemical inhibition assay (voltammetry, purified hIDO1 immobilized on nanoporous gold electrode, with O2 and Trp)
Assay type: biochemical

T1 sequence (P14902 whole entry): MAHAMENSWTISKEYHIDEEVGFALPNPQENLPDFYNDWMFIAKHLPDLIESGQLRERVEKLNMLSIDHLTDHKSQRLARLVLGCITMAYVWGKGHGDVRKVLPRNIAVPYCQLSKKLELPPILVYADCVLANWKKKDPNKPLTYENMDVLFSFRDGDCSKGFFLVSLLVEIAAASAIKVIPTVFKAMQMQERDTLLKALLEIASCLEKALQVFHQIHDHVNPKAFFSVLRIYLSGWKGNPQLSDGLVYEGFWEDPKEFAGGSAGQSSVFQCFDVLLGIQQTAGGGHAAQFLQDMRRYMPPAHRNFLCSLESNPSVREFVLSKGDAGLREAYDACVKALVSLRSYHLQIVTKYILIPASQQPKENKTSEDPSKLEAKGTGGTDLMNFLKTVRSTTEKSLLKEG

CC(C)(C)c1nc(CN2CCN(CC(O)c3ccccc3)CC2)no1 (racemic) [MTS-7, 2-(4-{[5-(2-methyl-2-propanyl)-1,2,4-oxadiazol-3-yl]methyl}-1-piperazinyl)-1-phenylethanol]
IC50: ~10 nM
